The results in this text go back to US8524978B2, “Composition for production of plant body having improved sugar content, and use thereof” (Japan Science and Technology Agency, priority 2007, dated 2013).

The experiment deals with Lycopersicum esculentum. The experiment in a line: Sugar content determination of Lycopersicum esculentum fruit with refractometer (Example 2). The format is in vivo. The conditions noted are these: 0.5 mM applied as in Example 1; compared to Cont and Cont2 Sunny conditions; ANOVA 5%. The source says:
Cultivated were Lycopersicum esculentum plants to which GSSG or GSH was applied by the method described in Example 1. Then, obtained fruit of the plants was subjected to sugar content determination using “Pocket” Refractometer APAL-1 (ATAGO CO., LTD.).
For comparison, Lycopersicum esculentum plants were cultivated under two types of conditions (referred to as “Cont” and “Cont2 Sunny”). In the Cont condition, Lycopersicum esculentum plants were cultivated by the same method as in Example 1, except that GSSG and GSH were not applied. In the Cont2 Sunny condition, a Lycopersicum esculentum plant was not applied with GSSG or GSH and was independently cultivated at a site sufficiently irradiated with sunlight so that illuminance on the Lycopersicum esculentum plant becomes 100%. In the Cont condition and a condition in which GSSG or GSH was applied, the plants were planted at intervals of 40 cm to 50 cm. In this case, a plant may intercept light irradiating another plant. Therefore, illuminance on such plants becomes less than 100%.
In the condition in which GSSG was applied, the condition in which GSH is applied, and the Cont condition, three Lycopersicum esculentum plants were cultivated, respectively. In the Cont2 Sunny condition, one Lycopersicum esculentum plant was cultivated. […]

“Also recorded” adds a separate entry of the source.

For oxidized glutathione [GSSG], the “sugar content of fruit (Brix)” value is “significantly increased; also recorded: extremely high sugar content”.
